The results in this text go back to US20100081613A1, “METHODS AND COMPOSITIONS FOR ENHANCING MEMORY” (THE TRUSTEES OF COLUMBIA UNIVERSITY IN THE CITY OF NEW YORK, priority 2006, published 2010).

Test [1] has as its system hippocampal slices. As to the kind of experiment: Paired pulse facilitation (PPF) at the CA3-CA1 connection. In kind it is cell-based, mouse.
In test [2] the test system is hippocampal slices.
For test [3], the target named is rodent Aβ42 (Mus musculus; Rattus norvegicus). In words: cell-based or functional assay.

Turning to `CNC1(C)C2CCC(C2)C1(C)C` (centres unmarked) [MCL, mecamylamine], the PPF in test [1] (20 ms interval, MCL 3 μM for 20 min plus Aβ42) is recorded as 138.18±22.01 % of facilitation; in test [1] (30 ms interval, MCL 3 μM for 20 min plus Aβ42) it was 158.58±16.79 % of facilitation; in test [1] (40 ms interval, MCL 3 μM for 20 min plus Aβ42) it was 176.71±17.51 % of facilitation; in test [1] (50 ms interval, MCL 3 μM for 20 min plus Aβ42), 197.49±22.30 % of facilitation; in test [1] (MCL 3 μM for 20 min alone) it was 214.53±20.85%. In test [2], the PTP result is recorded as “does not affect PTP”.

anti-rodent Aβ monoclonal antibody m3.2 had a contextual fear conditioning, freezing 24 hrs after training, m3.2 mAb 1 µg in 1 µl into dorsal hippocampi (% of freezing) in test [3] of 16.8.

Regarding α-bungarotoxin [α-BgTx], in test [2], the PTP entry is “does not affect PTP”.
